Paper PMC2579271 (Molecular cancer therapeutics, 2008)

Assays:
Jak2 (Jak2-WT) = Jak2 (Jak2-WT) (Mus musculus, UniProt Q62120); experiment: autophosphorylation; format: cell-based
Jak2-V617F = Jak2-V617F (Mus musculus, UniProt Q62120, V617F); experiment: autophosphorylation; format: cell-based
Jak2-V617F, sequence (Q62120 whole entry V617F): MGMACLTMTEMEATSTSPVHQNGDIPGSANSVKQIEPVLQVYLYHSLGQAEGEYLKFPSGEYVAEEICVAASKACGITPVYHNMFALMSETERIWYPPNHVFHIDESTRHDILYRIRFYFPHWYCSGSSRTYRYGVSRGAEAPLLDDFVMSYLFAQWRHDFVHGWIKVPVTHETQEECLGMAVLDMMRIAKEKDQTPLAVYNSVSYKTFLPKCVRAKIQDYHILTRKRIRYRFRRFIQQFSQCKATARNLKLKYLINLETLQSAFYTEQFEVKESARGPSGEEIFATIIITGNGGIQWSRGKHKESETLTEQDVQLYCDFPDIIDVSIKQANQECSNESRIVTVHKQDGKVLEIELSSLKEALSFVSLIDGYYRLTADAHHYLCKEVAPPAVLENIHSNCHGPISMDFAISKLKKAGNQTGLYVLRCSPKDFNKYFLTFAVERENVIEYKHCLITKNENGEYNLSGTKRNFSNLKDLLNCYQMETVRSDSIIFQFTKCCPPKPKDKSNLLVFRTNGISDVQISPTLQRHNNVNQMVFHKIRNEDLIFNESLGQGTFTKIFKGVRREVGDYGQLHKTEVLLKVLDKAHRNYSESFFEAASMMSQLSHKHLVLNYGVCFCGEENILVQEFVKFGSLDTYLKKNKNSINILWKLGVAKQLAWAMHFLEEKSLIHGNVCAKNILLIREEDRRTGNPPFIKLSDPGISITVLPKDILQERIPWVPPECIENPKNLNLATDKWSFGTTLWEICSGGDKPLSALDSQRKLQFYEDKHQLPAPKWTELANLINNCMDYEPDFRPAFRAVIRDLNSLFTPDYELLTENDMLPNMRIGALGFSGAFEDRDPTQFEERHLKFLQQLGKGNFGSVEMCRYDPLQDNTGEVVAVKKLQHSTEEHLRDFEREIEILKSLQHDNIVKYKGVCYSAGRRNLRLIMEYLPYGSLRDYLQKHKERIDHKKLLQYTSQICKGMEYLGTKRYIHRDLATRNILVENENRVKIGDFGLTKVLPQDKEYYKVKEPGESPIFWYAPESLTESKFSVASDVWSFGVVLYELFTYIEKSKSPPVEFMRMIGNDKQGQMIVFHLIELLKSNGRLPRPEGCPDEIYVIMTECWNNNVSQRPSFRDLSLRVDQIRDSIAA

Jak2 (Jak2-WT), sequence (Q62120 whole entry): as the sequence (Q62120 whole entry V617F) above, with F617V counted along it

`CC(CCc1ccccn1)(CCc1ccccn1)C(=O)c1ccccc1` [Z3, 2-methyl-1-phenyl-4-pyridin-2-yl-2-(2-pyridin-2-ylethyl)butan-1-one] gave an IC50 (Jak2 (Jak2-WT)) of about 15 µM and an IC50 (Jak2-V617F) of about 28 µM.
